Data published in patent publication US20260356851A1, “TRICYCLIC COMPOUNDS AND USES THEREOF” (HUTCHMED LIMITED, priority 2023, published 2026).
Read-outs that look alike come from different tables or passages of the source.

Assays:
Type in all cases: cell-based
[1] = biological target: T1, pERK1/2 (Thr202/Tyr204), NCI-1H441 (KRAS G12V) (Homo sapiens, UniProt P01116, G12V); assay: Assay of intracellular pERK1/2 (Thr202/Tyr204) phosphorylation in NCI-H441 cells (KRAS G12V)
T1 construct: pERK1/2 HTRF read-out
T1 sequence (P01116 1-188 isoform P01116-2 G12V): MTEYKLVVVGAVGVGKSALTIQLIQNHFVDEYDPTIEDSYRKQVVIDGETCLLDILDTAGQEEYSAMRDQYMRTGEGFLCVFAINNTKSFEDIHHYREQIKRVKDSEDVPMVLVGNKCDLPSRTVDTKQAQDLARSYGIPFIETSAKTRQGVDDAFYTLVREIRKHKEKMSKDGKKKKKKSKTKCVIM
Experimental: (§1) Example 2: Assay of intracellular pERK1/2 (Thr202/Tyr204)phosphorylation
(§2) 1. Reagents and materials: • pERK1/2 (Thr202/Tyr2O4) HIRE kit, Cisbio, Cat #64ERKPEH; • OptiPlate™-384-well plate, PerkinElmer, Cat #6007299; • 96-well plate, Coming, Cat #353072; • Instrument: EnVision2104, PerkinElmer; • Cell lines: NCI-1H358 (KRAS G12C), ATCC, CRL-5807; PANC-1 (KRAS G121D), ATCC, CRL-1469; NCI-1H441 (KRAS G12V), ATCC, HTB-174.
(§3) 2. Preparation of Reaction Solutions
(§4) • A test compound was dissolved in DMSO, diluted to 200.0 μM and further diluted 3-fold to prepare a series of test compounds at concentrations of 66.7, 22.2, 7.4, 2.5, 0.82, 0.27, 0.09 μM etc. Then 10 μL of the compound at different dilution concentrations was added to 190 μL of a DMEM medium to prepare a 10× test compound; • 1× cell lysis buffer: 4× cell lysis stock solution (provided by the kit) was diluted 4-fold with deionized water, and then 10% 100× blocking stock solution (provided by the kit) was added thereto. • pERK1/2 detection solution (prepared just before use): the pERK1/2 d2 antibody (provided by the kit) and pERK1/2 Cryptate antibody (provided by the kit) were diluted with the detection solution (provided by the kit) at a ratio of 1:1:38.
(§5) • Cells were inoculated into a 96-well plate (100 μL/well) at a density of 10000-12000/well. No cell was inoculated into a negative control well, and only the cell medium was added at 100 μL/well. The plate was placed in a cell incubator at 5% CO2 and 37° C. overnight. • 10 μL of the 10× test compound was added to the 100 μL cell culture 96-well plate; both the positive control well (that is, the control hole without chemical compound treatment) and the negative control well were charged with 10 μL of a 5% DMSO culture solution; and the plate was cultured in a cell incubator at 5% CO2 and 37° C. for 2 days. • The medium in the 96-well plate was removed; 50 μL of the 1× cell lysis buffer was added to each of the wells; the plate was placed in a microplate shaker; and lysis under shaking was carried out at 900 rpm at room temperature for 1 hour. • 16 μL of the lysis buffer in the 96-well plate was taken and transferred to a 384-well plate, followed by centrifugation at 1000 rpm for 30 s; then 4 μL of pERK1/2 detection solution was added to each well, followed by centrifugation at 1000 rpm for 30 s; and the 384-well plate was sealed with a sealing membrane and incubated at 25° C. on a low-speed shaker at 100 rpm in the dark for 2 hours. • The fluorescence value (RFU) of each well was detected on EnVision2104, with an emission wavelength 1 being 665 nm and an emission wavelength 2 being 615 nm.
(§6) Fluorescence ratio=fluorescence value665 nm/fluorescence value615 nm
(§7) Inhibition rate (%)=100−((fluorescence ratio of compound well−fluorescence ratio of negative control well)/(fluorescence ratio of positive control well−fluorescence ratio of negative control well))×100
(§8) wherein: • the fluorescence ratio of compound well refers to the fluorescence ratio of the well containing the test compounds; • the fluorescence ratio of negative control well refers to the fluorescence ratio of the cell-free control well; • the fluorescence ratio of positive control well refers to the fluorescence ratio of the cell well treated with 0.5% DMSO.
(§9) IC50 value: obtained by calculation using XL-Fit 5.0 software.

[2] = biological target: T2, pERK1/2 (Thr202/Tyr204), PANC-1 (KRAS G121D) (Homo sapiens, UniProt P01116, G12D); assay: Assay of intracellular pERK1/2 (Thr202/Tyr204) phosphorylation in PANC-1 cells (KRAS G12D)
T2 construct: pERK1/2 HTRF read-out
T2 sequence (P01116 1-188 isoform P01116-2 G12D): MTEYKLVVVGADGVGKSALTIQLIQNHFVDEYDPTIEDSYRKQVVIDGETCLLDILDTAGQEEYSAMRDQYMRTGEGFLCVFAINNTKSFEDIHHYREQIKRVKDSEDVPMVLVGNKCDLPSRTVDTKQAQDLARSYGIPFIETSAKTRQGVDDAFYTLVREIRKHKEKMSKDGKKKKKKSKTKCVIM
Experimental: as §1, §2, §3, §4, §5, §6, §7, §8, §9

[3] = biological target: T3, pERK1/2 (Thr202/Tyr204), NCI-1H358 (KRAS G12C) (Homo sapiens, UniProt P01116, G12C); assay: Assay of intracellular pERK1/2 (Thr202/Tyr204) phosphorylation in NCI-H358 cells (KRAS G12C)
T3 construct: pERK1/2 HTRF read-out
T3 sequence (P01116 1-188 isoform P01116-2 G12C): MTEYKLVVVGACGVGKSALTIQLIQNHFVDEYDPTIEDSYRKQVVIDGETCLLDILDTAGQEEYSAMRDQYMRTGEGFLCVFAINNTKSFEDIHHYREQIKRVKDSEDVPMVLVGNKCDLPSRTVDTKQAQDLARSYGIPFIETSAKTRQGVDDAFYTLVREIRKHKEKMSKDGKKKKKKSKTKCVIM
Experimental: as §1, §2, §3, §4, §5, §6, §7, §8, §9

[4] = pERK1/2, 2 days, read-out: NCI-H441 (KRAS G12V) IC50
[5] = pERK1/2, 2 days, read-out: PANC-1 (KRAS G12D) IC50
[6] = pERK1/2, 2 days, read-out: NCI-H358 (KRAS G12C) IC50

| Compound | IC50 [1, 4] | IC50 [2, 5] | IC50 [3, 6] | IC50 ([1]; read-out: NCI-H441 (KRAS G12V) IC50, pERK1/2, 2 days) | IC50 ([2]; read-out: PANC-1 (KRAS G12D) IC50, pERK1/2, 2 days) | IC50 ([3]; read-out: NCI-H358 (KRAS G12C) IC50, pERK1/2, 2 days) |
| --- | --- | --- | --- | --- | --- | --- |
| CC[C@@H](c1cccnc1N)N1CCOc2nc(-c3cc(N)c(F)c(C)c3C(F)(F)F)c(F)c3nc(OC[C@@]45CCCN4C[C@H](F)C5)nc1c23 (single isomer, unassigned) [Compound 213, 3-((R or S)-1-(5-(5-amino-4-fluoro-3-methyl-2-(trifluoromethyl)phenyl)-4-fluoro-2-(((2R,7aS)-2-fluorotetrahydro-1H-pyrrolizin-7a(5H)-yl)methoxy)-8,9-dihydro-10H-7-oxa-1,3,6,10-tetraazacyclohepta[de]napthalen-10-yl)propyl)pyridin-2-amine] | 18 nM | > 100 nM | 13 nM |  |  |  |
| Cc1c(F)c(N)cc(-c2nc3c4c(nc(OC[C@@]56CCCN5C[C@H](F)C6)nc4c2F)N(C2CC2)CCO3)c1C(F)(F)F [Compound 196] | > 100 nM | > 100 nM | > 100 nM |  |  |  |
| [2H]C1([2H])Oc2nc(-c3cc(N)c(F)c(C)c3C(F)(F)F)c(F)c3nc(OC[C@@H]4C[C@@H](F)CN4C)nc(c23)N(C(C)c2cccnc2N)C1([2H])[2H] (single isomer, unassigned) [Compound 202, 3-((R or S)-1-(5-(5-amino-4-fluoro-3-methyl-2-(trifluoromethyl)phenyl)-4-fluoro-2-(((2S,4R)-4-fluoro-1-methylpyrrolidin-2-yl)methoxy)-8,9-dihydro-10H-7-oxa-1,3,6,10-tetraazacyclohepta[de]naphthalen-10-yl-8,8,9,9-d4)ethyl)pyridin-2-amine] | 1 nM | 13 nM | 0.4 nM |  |  |  |
| CC(c1cccnc1N)N1c2nc(OC[C@@]34CCCN3C[C@H](F)C4)nc3c(F)c(-c4c(C(F)(F)F)ccc5ncccc45)nc(c23)OC[C@@H]1C (some centres unmarked) [Compound 337] | > 100 nM | > 100 nM | > 100 nM |  |  |  |
| CNC(=O)Oc1cc(Cl)c(C2CC2)c(-c2nc3c4c(nc(OC[C@@]56CCCN5C[C@H](F)C6)nc4c2F)N(C(C)c2cccnc2N)[C@@H](C)CO3)c1 (some centres unmarked) [Compound 295] |  |  |  | 1 nM | 0.5 nM | 0.4 nM |
| Cc1c(F)c(N)cc(-c2nc3c4c(nc(OC[C@@]56CCCN5C[C@H](F)C6)nc4c2F)N(C(C)c2cccnc2N)[C@H](C)CO3)c1C(F)(F)F (single isomer, unassigned) [Compound 255, 3-((R or S)-1-((R)-5-(5-amino-4-fluoro-3-methyl-2-(trifluoromethyl)phenyl)-4-fluoro-2-(((2R,7aS)-2-fluorotetrahydro-1H-pyrrolizin-7a(5H)-yl)methoxy)-9-methyl-8,9-dihydro-10H-7-oxa-1,3,6,10-tetraazacyclohepta[de]naphthalen-10-yl)ethyl)pyridin-2-amine] | > 100 nM | > 100 nM | 37 nM |  |  |  |
| Cc1cc(N)cc(-c2nc3c4c(nc(OCC5CCOCC5)nc4c2F)N(C(C)c2cccnc2N)CCO3)c1C(F)(F)F (single isomer, unassigned) [Compound 117, (R or S)-3-(1-(5-(5-amino-3-methyl-2-(trifluoromethyl)phenyl)-4-fluoro-2-((tetrahydro-2H-pyran-4-yl)methoxy)-8,9-dihydro-10H-7-oxa-1,3,6,10-tetraazacyclohepta[de]naphthalen-10-yl)ethyl)pyridin-2-amine] | 36 nM | > 100 nM | 26 nM |  |  |  |
| Cc1cc2[nH]nc(C)c2c(-c2nc3c4c(nc(OC[C@@]56CCCN5C[C@H](F)C6)nc4c2F)N(C(C)c2cccnc2N)[C@@H](C)CO3)c1C(F)(F)F (some centres unmarked) [Compound 378] | 0.6 nM | 0.2 nM | 0.2 nM |  |  |  |
| CC(c1cccnc1N)N1CCOc2nc(-c3cc(N)cc(Cl)c3C3CC3)c(F)c3nc(OC[C@@]45CCCN4C[C@H](F)C5)nc1c23 (single isomer, unassigned) [Compound 75, 3-((R or S)-1-(5-(5-amino-3-chloro-2-cyclopropylphenyl)-4-fluoro-2-(((2R,7aS)-2-fluorotetrahydro-1H-pyrrolizin-7a(5H)-yl)methoxy)-8,9-dihydro-10H-7-oxa-1,3,6,10-tetraazacyclohepta[de]naphthalen-10-yl)ethyl)pyridin-2-amine] | 11 nM | 40 nM | 5 nM |  |  |  |
| CC(c1cccnc1N)N1c2nc(OC[C@@]34CCCN3C[C@H](F)C4)nc3c(F)c(-c4c5c(cc6[nH]ncc46)CCC(F)(F)C5)nc(c23)OC[C@@H]1C (some centres unmarked) [Compound 376] | 1 nM | 4 nM | 0.4 nM |  |  |  |
| CCc1c(F)ccc2cc(O)cc(-c3nc4c5c(nc(OC[C@@]67CCCN6C[C@H](F)C7)nc5c3F)N(C(C)c3cccnc3N)[C@@H](C)CO4)c12 (single isomer, unassigned) [Compound 280, 4-((S)-10-((R or S)-1-(2-aminopyridin-3-yl)ethyl)-4-fluoro-2-(((2R,7aS)-2-fluorotetrahydro-1H-pyrrolizin-7a(5H)-yl)methoxy)-9-methyl-9,10-dihydro-8H-7-oxa-1,3,6,10-tetraazacyclohepta[de]naphthalen-5-yl)-5-ethyl-6-fluoronaphthalen-2-ol] | 11 nM | 5 nM | 6 nM |  |  |  |
| Cc1c(F)c(N)cc(-c2nc3c4c(nc(OC[C@]56CCCN5C[C@@H](F)C6)nc4c2F)N(C(C)c2cccnc2N)CCO3)c1C(F)(F)F (some centres unmarked) [Compound 163] | 0.4 nM | 6 nM | 0.2 nM |  |  |  |
| Cc1cc(N)cc(-c2nc3c4c(nc(OC[C@H]5CCCN5C)nc4c2F)N(C(C)c2cccnc2N)CCO3)c1C(F)(F)F (single isomer, unassigned) [Compound 110, 3-((R or S)-1-(5-(5-amino-3-methyl-2-(trifluoromethyl)phenyl)-4-fluoro-2-(((R)-1-methylpyrrolidin-2-yl)methoxy)-8,9-dihydro-10H-7-oxa-1,3,6,10-tetraazacyclohepta[de]naphthalen-10-yl)ethyl)pyridin-2-amine] | > 100 nM | > 100 nM | > 100 nM |  |  |  |
| Cc1ccc(C(C)N2CCOc3nc(-c4cc(N)c(F)c(C)c4C(F)(F)F)c(F)c4nc(OC[C@@]56CCCN5C[C@H](F)C6)nc2c34)c(N)n1 (single isomer, unassigned) [Compound 252, 3-((R or S)-1-(5-(5-amino-4-fluoro-3-methyl-2-(trifluoromethyl)phenyl)-4-fluoro-2-(((2R,7aS)-2-fluorotetrahydro-1H-pyrrolizin-7a(5H)-yl)methoxy)-8,9-dihydro-10H-7-oxa-1,3,6,10-tetraazacyclohepta[de]naphthalen-10-yl)ethyl)-6-methylpyridin-2-amine] |  |  | > 100 nM |  |  |  |
| Cc1cc(N)cc(-c2nc3c4c(nc(OC[C@@]56CCCN5C[C@H](F)C6)nc4c2F)N(C(C)c2cccnn2)CCO3)c1C(F)(F)F (single isomer, unassigned) [Compound 128, 3-(4-fluoro-2-(((2R,7aS)-2-fluorotetrahydro-1H-pyrrolizin-7a(5H)-yl)methoxy)-10-((R or S)-1-(pyridazin-3-yl)ethyl)-9,10-dihydro-8H-7-oxa-1,3,6,10-tetraazacyclohepta[de]naphthalen-5-yl)-5-methyl-4-(trifluoromethyl)aniline] |  |  | > 100 nM |  |  |  |
